# Measurements from US11571421B2, “GABAA positive allosteric modulator compounds for treatment of itch and/or dermatitis” (NeuroCycle Therapeutics, Inc., priority 2018, dated 2023).
# Values joined by “and” are separate entries in the source; they are usually repeats but may differ in a detail not shown here. Equal values may be shown once.
# Experiments:
# [1] = system: Chloroquine (CQ)-Induced Itch Model in Male C57BL/6 Mice; assay: Chloroquine Induced Itch Model, PF-06372865 (Example 1); format: in vivo
# Method: PF-06372865 was evaluated as an antipruritic and/or antidermatitis agent using a Chloroquine Induced Itch Model in male C57BL/6 mice.
# Male C57BL/6 Mice (8-10 weeks) were used in the study. Animals were procured from CRL, Hylasco (CPSCEA registered animal supplier).
# Mice were housed one per cage and maintained at controlled environmental conditions with 12-h light and dark cycles. The temperature and humidity of the room were maintained between 22±3° C. and 55±5%, respectively. The maximum and minimum temperature and relative humidity in the experimental rooms were recorded once daily. […]
# PF-06372865 was weighed into a clean mortar. Liquefied Solutol (i.e., Polyoxyl 15 Hydroxystearate) was added drop wise and triturated using a pestle for 2-3 minutes, then Glycerol formal was added and mixed in same fashion. The volume was made up by slowly adding the required volume of water. The resulting mixture was mixed well using mild vortexing to provide a homogeneous suspension. (Details in below chart)
# 27 mg of chloroquine phosphate was weighed in a clean glass container. 6 mL PBS was added, and the resulting mixture was mixed well using mild vortexing to form the desired strength solution.
# The right-side cheek area of all the animals was shaved with animal clippers 1 day prior to the experiment. Animals were randomized into different treatment groups (n=9/group) based on body weight to avoid variability in weights across groups. NCT10004 Phosphate and PF-06372865 formulations and chloroquine phosphate solution were prepared on the day of the experiment.
# Animals were dosed per oral with respective treatment group using a dose volume of 10 ml/kg. Times of dosing were recorded. Immediately after compound treatment, animals were kept in an empty transparent chamber (23 cm length×17 cm width) for acclimatization and observation.
# Ninety (90) minutes post compound dosing, 50-μl of chloroquine phosphate solution (a 200-μg dose) was injected intracutaneously into the animal's right cheek. Animals were returned to the same chamber for observation. Animals were observed by an observer blind to the treatment group for a period of 30 minutes post chloroquine injection. Total number of bouts of scratching directed at the ipsilateral cheek were recorded for 30 minutes.
# [2] = system: Dry Itch Model in Male C57BL/6 Mice; assay: Dry skin itch model (Example 8); format: in vivo; settings: 10 mg/kg intraperitoneal; 15 to 210 min after injection
# Method: In order to assess the antipruritic effect of PF-06372865 in another clinically relevant disease, the dry skin model of dermatitis is used. In the dry skin model, mice are treated with a mixture of acetone and diethylether (1:1) on the shaved nape of the neck for 15 s, followed by distilled water for 30 sec, twice daily for 10 days. On the day of the experiment, mice received intraperitoneal injection of vehicle or PF-06372865 (10 mg/kg). The number of scratching bouts directed to the nape of the neck between 15 to 210 min after injection are recorded.
# [3] = 10 mg/kg PO, individual animals
# [4] = 30 mg/kg PO, individual animals
smiles,measurement,setting,value
CCn1cnc2c(-c3ccc(F)c(-c4ccc(S(=O)(=O)CC)cc4OC)c3)cnnc21 [PF-06372865],"Scratching bouts (Nos.) in 30 min, 0-5 min","[1]; 3 mg/kg PO, individual animals",16 Nos. and 0 Nos. (4×) and 19 Nos. and 1 Nos. and 3 Nos. and 5 Nos.
same,"Scratching bouts (Nos.) in 30 min, 5-10 min","[1]; 3 mg/kg PO, individual animals",0 Nos. (7×) and 33 Nos. and 2 Nos.
same,"Scratching bouts (Nos.) in 30 min, 10-15 min","[1]; 3 mg/kg PO, individual animals",44 Nos. and 4 Nos. and 0 Nos. (4×) and 10 Nos. and 16 Nos. and 29 Nos.
same,"Scratching bouts (Nos.) in 30 min, 15-20 min","[1]; 3 mg/kg PO, individual animals",17 Nos. and 14 Nos. and 33 Nos. and 0 Nos. (4×) and 3 Nos. and 22 Nos.
same,"Scratching bouts (Nos.) in 30 min, 20-25 min","[1]; 3 mg/kg PO, individual animals",13 Nos. and 0 Nos. (5×) and 14 Nos. and 3 Nos. and 9 Nos.
same,"Scratching bouts (Nos.) in 30 min, 25-30 min","[1]; 3 mg/kg PO, individual animals",9 Nos. and 0 Nos. (5×) and 3 Nos. and 15 Nos. and 4 Nos.
same,Total Scratching bouts,"[1]; 3 mg/kg PO, individual animals",99 Nos./30 min and 18 Nos./30 min and 66 Nos./30 min and 29 Nos./30 min and 24 Nos./30 min and 59 Nos./30 min and 3 Nos./30 min and 12 Nos./30 min and 31 Nos./30 min
same,"Scratching bouts (Nos.) in 30 min, 0-5 min","[1]; 10 mg/kg PO, MEAN, N=9",0.00 Nos.
same,"Scratching bouts (Nos.) in 30 min, 5-10 min","[1]; 10 mg/kg PO, MEAN, N=9",0.00 Nos.
same,"Scratching bouts (Nos.) in 30 min, 10-15 min","[1]; 10 mg/kg PO, MEAN, N=9",7.33 Nos.
same,"Scratching bouts (Nos.) in 30 min, 15-20 min","[1]; 10 mg/kg PO, MEAN, N=9",4.11 Nos.
same,"Scratching bouts (Nos.) in 30 min, 20-25 min","[1]; 10 mg/kg PO, MEAN, N=9",2.78 Nos.
same,"Scratching bouts (Nos.) in 30 min, 25-30 min","[1]; 10 mg/kg PO, MEAN, N=9",1.11 Nos.
same,Total Scratching bouts,"[1]; 10 mg/kg PO, MEAN, N=9",15.33 Nos./30 min
same,"Scratching bouts (Nos.) in 30 min, 0-5 min",[1]; [3],0 Nos.
same,"Scratching bouts (Nos.) in 30 min, 5-10 min",[1]; [3],0 Nos.
same,"Scratching bouts (Nos.) in 30 min, 10-15 min",[1]; [3],0 Nos. (7×) and 33 Nos. (2×)
same,"Scratching bouts (Nos.) in 30 min, 15-20 min",[1]; [3],0 Nos. (6×) and 8 Nos. and 3 Nos. and 26 Nos.
same,"Scratching bouts (Nos.) in 30 min, 20-25 min",[1]; [3],0 Nos. (6×) and 12 Nos. and 9 Nos. and 4 Nos.
same,"Scratching bouts (Nos.) in 30 min, 25-30 min",[1]; [3],2 Nos. (2×) and 0 Nos. (6×) and 6 Nos.
same,Total Scratching bouts,[1]; [3],2 Nos./30 min and 14 Nos./30 min and 41 Nos./30 min and 33 Nos./30 min and 0 Nos./30 min (2×) and 15 Nos./30 min and 3 Nos./30 min and 30 Nos./30 min
same,"Scratching bouts (Nos.) in 30 min, 0-5 min","[1]; 30 mg/kg PO, MEAN, N=9",0.00 Nos.
same,"Scratching bouts (Nos.) in 30 min, 5-10 min","[1]; 30 mg/kg PO, MEAN, N=9",0.00 Nos.
same,"Scratching bouts (Nos.) in 30 min, 10-15 min","[1]; 30 mg/kg PO, MEAN, N=9",0.00 Nos.
same,"Scratching bouts (Nos.) in 30 min, 15-20 min","[1]; 30 mg/kg PO, MEAN, N=9",0.00 Nos.
same,"Scratching bouts (Nos.) in 30 min, 20-25 min","[1]; 30 mg/kg PO, MEAN, N=9",0.00 Nos.
same,"Scratching bouts (Nos.) in 30 min, 25-30 min","[1]; 30 mg/kg PO, MEAN, N=9",0.00 Nos.
same,Total Scratching bouts,"[1]; 30 mg/kg PO, MEAN, N=9",0.00 Nos./30 min
same,"Scratching bouts (Nos.) in 30 min, 0-5 min",[1]; [4],0 Nos.
same,"Scratching bouts (Nos.) in 30 min, 5-10 min",[1]; [4],0 Nos.
same,"Scratching bouts (Nos.) in 30 min, 10-15 min",[1]; [4],0 Nos.
same,"Scratching bouts (Nos.) in 30 min, 15-20 min",[1]; [4],0 Nos.
same,"Scratching bouts (Nos.) in 30 min, 20-25 min",[1]; [4],0 Nos.
same,"Scratching bouts (Nos.) in 30 min, 25-30 min",[1]; [4],0 Nos.
same,Total Scratching bouts,[1]; [4],0 Nos./30 min
same,"scratching bouts compared to vehicle treatment, significance","[1]; at 0.3, 1, 3, 10 and 30 mg/kg doses",Statistically significant decrease
same,"total number of scratching bouts, dose response","[1]; quantified for 30 minutes post CQ injection, 0.3-30 mg/kg PO",dose dependent decrease
same,scratching bouts compared to vehicle injection,[2],significant reduction in scratching bouts
